Results published in PubChem BioAssay AID2060888 (Molecular Pharmacology Branch, DTP, NCI, 2025).
Values belong to the compound of their own block, whether it stands above or below them.

System: 695427-040-R-J1-PDC complex spheroid viability
Test: Anticancer human tumor 695427-040-R-J1-PDC patient-derived colon adenocarcinoma cell line growth inhibition [RAS]
Conditions: for viability, T/C: stronger effect = lower value
Method in brief: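 Tumour cells grown as complex spheroids with HUVEC endothelial cells and mesenchymal stem cells, treated with RAS pathway inhibitor combinations. Each agent spans half-log steps from near clinical Cmax, or 10 microM where Cmax is unknown.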
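Also: viability read after seven days of drug exposure.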
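For viability, T/C in this document: 100% = DMSO vehicle control viability.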

IC50 (curve of first compound, second compound 0.000949 µM): 113 nM
IC50 (curve of first compound, second compound 0.003 µM): 131 nM
IC50 (curve of first compound, second compound 0.00949 µM): 49.3 nM
IC50 (curve of first compound, second compound 0.03 µM): 69.2 nM
IC50 (curve of first compound, second compound 0.0949 µM): 79.1 nM
IC50 (curve of first compound, second compound 0.3 µM): 95.2 nM
SMILES: CCc1c2c(nc3ccc(O)cc13)-c1cc3c(c(=O)n1C2)COC(=O)[C@]3(O)CC + CCn1c(-c2cccnc2C(C)OC)c2c3cc(ccc31)N1CCOC(CC(NC(=O)C(C(C)C)N(C)C(=O)C3(F)CCN(C(=O)C#CC(C)(C)N(C)C)CC3)C(=O)N3CCCC(N3)C(=O)OCC(C)(C)C2)C1
viability, T/C (second compound 0.000949 µM, first compound 0.000949 µM): 97.1%
viability, T/C (second compound 0.000949 µM, first compound 0.003 µM): 93.3%
viability, T/C (second compound 0.000949 µM, first compound 0.00949 µM): 84.2%
viability, T/C (second compound 0.000949 µM, first compound 0.03 µM): 61.5%
viability, T/C (second compound 0.000949 µM, first compound 0.0949 µM): 56.7%
viability, T/C (second compound 0.000949 µM, first compound 0.3 µM): 37.7%
viability, T/C (second compound 0.003 µM, first compound 0.000949 µM): 91.7%
viability, T/C (second compound 0.003 µM, first compound 0.003 µM): 84.6%
viability, T/C (second compound 0.003 µM, first compound 0.00949 µM): 66.1%
viability, T/C (second compound 0.003 µM, first compound 0.03 µM): 64.1%
viability, T/C (second compound 0.003 µM, first compound 0.0949 µM): 53%
viability, T/C (second compound 0.003 µM, first compound 0.3 µM): 43.1%
viability, T/C (second compound 0.00949 µM, first compound 0.000949 µM): 98.3%
viability, T/C (second compound 0.00949 µM, first compound 0.003 µM): 76.8%
viability, T/C (second compound 0.00949 µM, first compound 0.00949 µM): 65.8%
viability, T/C (second compound 0.00949 µM, first compound 0.03 µM): 63.4%
viability, T/C (second compound 0.00949 µM, first compound 0.0949 µM): 36.5%
viability, T/C (second compound 0.00949 µM, first compound 0.3 µM): 35.8%
viability, T/C (second compound 0.03 µM, first compound 0.000949 µM): 79.8%
viability, T/C (second compound 0.03 µM, first compound 0.003 µM): 96.4%
viability, T/C (second compound 0.03 µM, first compound 0.00949 µM): 80.1%
viability, T/C (second compound 0.03 µM, first compound 0.03 µM): 71.6%
viability, T/C (second compound 0.03 µM, first compound 0.0949 µM): 41.7%
viability, T/C (second compound 0.03 µM, first compound 0.3 µM): 31.5%
viability, T/C (second compound 0.0949 µM, first compound 0.000949 µM): 87.3%
viability, T/C (second compound 0.0949 µM, first compound 0.003 µM): 79.5%
viability, T/C (second compound 0.0949 µM, first compound 0.00949 µM): 81.6%
viability, T/C (second compound 0.0949 µM, first compound 0.03 µM): 49.7%
viability, T/C (second compound 0.0949 µM, first compound 0.0949 µM): 57%
viability, T/C (second compound 0.0949 µM, first compound 0.3 µM): 24.2%
viability, T/C (second compound 0.3 µM, first compound 0.000949 µM): 82.7%
viability, T/C (second compound 0.3 µM, first compound 0.003 µM): 101%
viability, T/C (second compound 0.3 µM, first compound 0.00949 µM): 69.7%
viability, T/C (second compound 0.3 µM, first compound 0.03 µM): 58.8%
viability, T/C (second compound 0.3 µM, first compound 0.0949 µM): 57%
viability, T/C (second compound 0.3 µM, first compound 0.3 µM): 31.2%

IC50 (compound alone, run of 06/10/2024): > 1000 nM
IC50 (curve of compound): > 1000 nM
SMILES: C=CC(=O)N1CCN(c2nc(OCC3CCCN3C)nc3c(F)c(-c4nc(N)cc(C)c4C(F)(F)F)c(Cl)cc23)C(C)C1 (configuration not stated)
viability, T/C (compound 0.00316 µM): 97.3% [middle of 12 runs]
viability, T/C (compound 0.0316 µM): 100% [middle of 12 runs]
viability, T/C (compound 0.1 µM): 102% [middle of 12 runs]
